Experimental data: ChEMBL document CHEMBL4392875, “Rearranged Clerodane Diterpenoids from the Stems of Tinospora baenzigeri” (2019)

What follows are compounds tested on HepG2 (assay: Hepatoprotective activity in human HepG2 cells assessed as inhibition of APAP-induced cell damage at 10 uM by MTT assay relative to control).
Type: functional

| SMILES | inhibition at 10 µM [%] |
| --- | --- |
| C[C@@]12C[C@H](C3=CC(=O)O[C@@H]3O)OC(=O)C1=CC[C@]1(C)[C@H]2C[C@H]2COC(=O)[C@]21O | 4.9 |
| COC(=O)[C@H]1O[C@H]2C[C@]1(C)C(CCCO[C@@H]1O[C@H](CO)[C@@H](O)[C@H](O)[C@H]1O)[C@]1(C)C[C@@H](c3ccoc3)OC(=O)[C@H]21 (stereo partly specified) | -24.9 |
| C[C@@H](O)/C=C/C1[C@]2(C)CO[C@@]1(C)C[C@@H](O)C2 (stereo partly specified) | 19.2 |
| C[C@@]12C[C@@H](c3ccoc3)OC(=O)C1=CC[C@]1(C)[C@H]2C[C@H]2COC(=O)[C@]21OC1O[C@H](CO)[C@@H](O)[C@H](O)[C@H]1O (stereo partly specified) | 3.8 |
| C[C@@]12C[C@@H](c3ccoc3)OC(=O)C1=CC[C@]1(C)[C@H]2C[C@H]2COC(=O)[C@]21O | 6.4 |
| C[C@@]12C[C@H](c3ccoc3)OC(=O)C1=CC[C@]1(C)[C@H]2C[C@H]2COC(=O)[C@]21O | 6.6 |
| COc1cc([C@@H]2OC[C@@H]3C(=O)OC[C@@H]32)cc(OC)c1O | 17 |
| COC(=O)c1cc(OC)c2c(c1-c1c(CO)cc(OC)c3c1OCO3)OCO2 [BICYCLOL] | 15.7 |
| COc1cc(C[C@H]2CO[C@H](c3ccc(O)c(OC)c3)[C@H]2CO)ccc1O [LARICIRESINOL] | -4.3 |
| O=C(/C=C/c1ccc(O)cc1)NCCc1ccc(O)cc1 [N-P-COUMAROYL TYRAMINE] | 39 |
| COc1cc(/C=C/C(=O)NCCc2ccc(O)cc2)ccc1O [N-TRANS-FERULOYL TYRAMINE] | 3.5 |
